Consider one molecule from patent US5972357A, “Healthy foods and cosmetics” (Kikkoman Corporation, priority 1996, dated 1999).

A short description of series [1]: anti-oxidation activity in a lipid oxidation process promoted by a metal ion (copper sulfate). The settings on record: 5 μM copper sulfate added; lesser ratio = stronger. As to the method:
The anti-oxidation activities was evaluated according to the method by A. Ben Aziz et al. (see Phytochemistry, 10, 1445, 1971). That is to say, an emulsion of linoleic acid and β-carotene was first prepared with Tween 20 (Sigma) and adjusted to pH 7.0 with 0.1 M trishydroxyaminomethane-hydrochloride. To the emulsion was added 0.0005% of a substance to be tested, and the mixture was reacted at 25° C.
During the reaction, the color degradation of β-carotene in association with the autoxidation of linoleic acid was measured with the passage of time as the decreased value of the optical density at 460 nm with a spectrophotometer.
The substance to be tested was a garcinal preparation obtained in Referential Example 1, and vitamin E and (+)-catechin were used as Comparative Example. The antioxidant activity was measured as a ratio of the decreasing rate of absorbance in the presence of the substance to be tested to the decreasing rate of absorbance in the absence of the antioxidant. That is, the substance is judged to have an antioxidant activity when the ratio is less than 1, and thus it is predicated that the lesser the ratio, the stronger the antioxidant activity.
The oxidation process of linoleic acid in Experimental Example 1 is promoted by a metal ion. If 5 μM of copper sulfate is added to the reaction system, the color-degradation rate of β-carotene is promoted by about 30%. When garcinol was added to this system, the ratio of the decreasing rate of absorbance was 0.57. In this connection, it was 0.13 for vitamin E and 0.84 for (+)-catechin.

A short description of series [2]: survival rate of the cells in the EBV-EA induction inhibiting test. Format: cell-based. The note with it: human, raji cells, 8 μg/ml. As to the method: (§1) The EBV potentially infected human lymphoblasts (Raji) were first prepared in a concentration of 5×10^5 cell/ml, and cultured in an RPMI-1640 medium to which 3 mM n-butyric acid (inducer) and 50 nM TPA (12-O-tetradecanoylphorbol-13-acetate) (promoter) were added in an atmosphere of 5% carbon dioxide and 95% air under at a temperature of 37° C. for 48 hours. The cells in which EBV-EA had been induced were detected microscopically by indirect immunofluorescence with the serum of a nasopharyngeal carcinoma (NPC) patient. In this system, various concentrations (8 μg/ml, 40 μg/ml, and 200 μg/ml) of the test substance (garcinol sample shown in Referential Example 1) dissolved in DMSO (dimethylsolfoxide) were added together with the promoter to the cells. The activity of suppressing the induction of the Epstein-Barr virus early antigen was defined as the decreasing rate of the cells in which EBV-EA had been induced.

A further series has as its system bovine lens α-crystallin. The series can be described thus: α-crystallin crosslinking polymerization inhibiting activity. The settings on record: 0.1 mM, 500 mM D-fructose, pH 7.4, 37° C., 2 weeks. The class given is biochemical. As to the method:
The effect of garcinol on bovine lens α-crystallin crosslinking polymerization reaction was evaluated. […] The gel after electrophoresis was stained with Coomassie Brilliant Blue, and the protein amounts in bands were determined with a densitometer. The crosslinking polymerization inhibiting activity of the protein was calculated from the following equation.
Protein polymerization inhibiting activity (%)=(Ps-Pc)/Pc×100
polymerization degree of protein=band density of polymerized protein/band density of monomer protein;
Ps: polymerization degree of protein in the presence of test substance;
Pc: polymerization degree of protein in the absence of test substance.

Series [3] relates to bovine serum albumin. The series is described as follows: suppression of generation of reactive oxygen species in the presence of metal ion (oxidation of bovine serum albumin in Fenton reaction). The note with it: 1 mM test substance, 10 μM copper ion, 20 mM hydrogen peroxide, 4 mg/ml BSA. Format: biochemical. As to the method:
The activity for suppressing the generation of reactive oxygen species in the presence of metal ion was evaluated by measuring the effect for suppressing the oxidation of bovine serum albumin by hydroxyl radical in the Fenton reaction system. That is to say, hydroxyl radical was first produced by divalent copper ion and hydrogen peroxide (Fenton reaction). Bovine serum albumin was oxidized by the hydroxyl radical, and thus carbonyl was produced. The carbonyl was reacted with 2,4-dinitrophenylhydrazine, and determined by measuring the absorbance at 365 nm. […] The ratio of decreases of absorbance was expressed as the activity for suppressing the generation of reactive oxygen species in the presence of metal ion.

Series [4] deals with Epstein-Barr virus early antigen (EBV-EA). The series can be described thus: EBV-EA induction inhibiting test (tumor promotion inhibition). Format: cell-based, human lymphoblasts (Raji). The settings on record: Homo sapiens, Raji; 8 μg/ml; 3 mM n-butyric acid, 50 nM TPA, 37° C., 48 hours; read-out: suppression of the induction of EBV-EA. As to the method: The effect of inhibiting the tumor promotion was evaluated as follows mainly according to the EBV-EA induction inhibiting test described by Y. Ito et al.
as §1

Series [5] has as its system bovine serum albumin. The series can be described thus: Maillard reaction inhibiting activity (bovine serum albumin/D-fructose). The settings on record: 0.1 mM, 37° C., 5 days, pH 7.4.
Procedure: A solution containing bovine serum albumin (4 mg/ml), 500 mM D-fructose and 200 mM potassium phosphate buffer (pH 7.4) was aseptically prepared. To the solution was added 0.1 mM of a test substance. The substance insoluble in water was added as an ethanolic solution so as the final concentration of ethanol to be less than 1%. After incubation of these solutions at 37° C. for 5 days, equivalent volume of a cold 10% trichloroacetic acid solution was added to the solution to precipitate proteins. The precipitate was collected by centrifugation, further washed with a cold 5% trichloroacetic acid solution, and dissolved again in a 200 mM potassium phosphate buffer. The solution was diluted appropriately with distilled water, and the fluorescence intensity at 425 nm was measured with an excitation wave length at 350 nm in a fluorescence spectrophotometer (Shimadzu Seisakusho, Ltd.). The inhibition activity was calculated from the following equation.
Inhibition activity (%)=(Fc-Fs)/(Fc-Fb)×100
Fs: fluorescence intensity in the presence of test substance;
Fc: fluorescence intensity in the absence of test substance;
Fb: fluorescence intensity in the absence of fructose.
Series [6] is described as follows: anti-oxidation activity (linoleic acid/β-carotene emulsion, autoxidation). The settings on record: 0.0005% test substance, pH 7.0, 25° C., 460 nm; lesser ratio = stronger. As to the method: The anti-oxidation activities was evaluated according to the method by A. Ben Aziz et al. […] That is to say, an emulsion of linoleic acid and β-carotene was first prepared with Tween 20 (Sigma) and adjusted to pH 7.0 with 0.1 M trishydroxyaminomethane-hydrochloride. […] During the reaction, the color degradation of β-carotene in association with the autoxidation of linoleic acid was measured with the passage of time as the decreased value of the optical density at 460 nm with a spectrophotometer. […] The antioxidant activity was measured as a ratio of the decreasing rate of absorbance in the presence of the substance to be tested to the decreasing rate of absorbance in the absence of the antioxidant.

As to `C=C(C)[C@@H](CC=C(C)C)C[C@@]12C[C@@H](CC=C(C)C)C(C)(C)[C@@](CC=C(C)C)(C(=O)C(C(=O)c3ccc(O)c(O)c3)=C1O)C2=O` [garcinol], the “ratio of the decreasing rate of absorbance (antioxidant activity with metal ion)” value in series [1] is 0.57. Also, the viability – broadly, a read-out of living cells in per cent, often relative to untreated cells – at 48 h in series [2] was at least 80%. In the series on bovine lens α-crystallin, the “protein polymerization inhibiting activity” value amounted to 68%. Further, the “ratio for suppressing the oxidation of bovine serum albumin” value in the series on bovine serum albumin [3] worked out at 55%. Further, the inhibition at 8 µg/mL in series [4] turned out to be 58.2%. The “Maillard reaction inhibition activity” value with bovine serum albumin [5] is on record as 97%. Moreover, the “antioxidant activity (ratio of the decreasing rate of absorbance with to without test substance)” value in series [6] amounted to 0.50.
